The AUC is concentration integrated over time. In general, Cmax refers to the maximum level reached in the sampled fluid or tissue. In general, Tmax refers to the time from dosing to the highest level.

Read-outs that look alike come from different tables or passages of the source.

We go through 2 molecules from patent US9205070B2, “Chelation suppository for improved drug delivery” (APPLIED BIORESEARCH, INC., priority 2013, dated 2015).

For series [1] the following is noted: dogs, aqueous solution, rectal; cited from earlier work.
For series [2] the following is noted: rat. From the text:
The conclusive measure of bioavailability is to measure the drug blood levels (or levels in some other body fluid) after administration to human test subjects.
See Rabau M Y, Baratz M, Rozen P, “Na2 ethylenediaminetetraacetic acid retention enema in dogs. Biochemical and histological response”.

For series [3] the following is noted: aqueous composition containing MBK, pH 7.0 and pH 9.6, after 5 hours. As for the experimental part: Cells in the digestive track, such as CACO-2 cells are typically used to model absorption in the small intestine. CACO-2 cells, developed by the Sloan-Kettering Institute from human epithelial colorectal adenocarcinoma cells, are widely used to predict drug absorption. […] permeability assay (PAMPA) uses an artificial cell membrane to model drug permeability. In either test, the drug is dissolved in an aqueous solution mimicking the target gastric fluid. The fluid is contacted with the membrane, and the passage of the drug through the membrane over a period of time is used to assess permeability.
PAMPA measures how quickly the drug can exit a water-solvated environment and pass through a cell membrane. Since most drugs are hydrophobic, it is expected that there will be significant absorption by the cells lining the digestive tract.

Setting [4] is: Group C, rectal suppository with MBK excipient, mean.

`O=C(O)CN(CCN(CC(=O)O)CC(=O)O)CC(=O)O` [EDTA]: in series [1], the absorption is given as around 13%.

Turning to `O=C([O-])CN(CCN(CC(=O)[O-])CC(=O)[O-])CC(=O)[O-].[Ca+2].[Na+].[Na+]` [CaNa2EDTA, calcium disodium ethylenediaminetetraacetate], in series [2] (Group B, intravenous, mean), the AUC was determined as 1.86 µg·h/mL, the “AUC Inf” value came to 1.91 µg·h/mL, the Cmax amounted to 2.07 µg/mL and the Halflife came to 1.50 h. Besides, in series [2] (Group B, intravenous, mean), the Tmax was found to be 4.98 min. Also, in series [2] (setting [4]), the AUC was determined as 105.8 µg·h/mL, the “AUC Inf” value was found to be 307.3 µg·h/mL and the Cmax was determined as 30.6 µg/mL. In addition, in series [2] (suppository with MBK as the excipient, within eight hours), the drug absorbed entry is given as “over 36.3%”. The “passage of drug through the artificial cell membrane” value in series [3] is given as “no drug was found to have passed through the artificial cell membrane”.
